From US6472526B1, “Imidazole derivatives having an inhibitory activity for farnesyl transferase and process for preparation thereof” (LG Chemical Ltd., priority 1997, dated 2002)

How the values were obtained:
Ras farnesyl transferase [1] = molecular target: T1, Ras farnesyl transferase (Homo sapiens, UniProt P49354+P49356); assay: In vitro inhibitory activity for Ras farnesyl transferase, H-Ras substrate; assay type: biochemical
T1 construct: made in house
Experimental: In the present experiment, Ras farnesyl transferase produced by genetic recombination techniques according to the improved Pompliano's method (Pompliano et al., Biochemistry, 1992, 31, 3800) was used, and Ras substrate (Ras-CVLS) protein described in Korean Patent Appln. No. 97-14409 was used after it has been purified according to the known method (see, Chung et al., Biochimica et Biophysica Acta, 1992, 278, 1129).
The enzyme reaction was performed in 50 μl of 50 mM Sodium HEPES buffer solution containing 25 mM of potassium chloride, 25 mM of magnesium chloride, 10 mM of DTT and 50 μM of zinc chloride. 1.5 μM of Ras substrate protein, 0.15 μM of tritium-farnesylpyrophosphate and 4.5 nM of farnesyl transferase were used.
More specifically, in the initial step, farnesyl transferase was added to the above buffer solution, reaction was maintained for 30 minutes at 37° C. and then the reaction was stopped by adding 1 ml of ethanol solution containing 1M HCl. The formed precipitates were adsorbed to GF/B filter using Hopper harvestor(Hopper #FH 225V) for filter-binding, washed with ethanol, and then radioactivity of the dried filter was measured using LKB β counter. Enzyme titer was measured in the unsaturated state of substrate where the concentrations of Ras substrate protein and farnesyl transferase have quantitative relationship. The compound according to the present invention dissolved in dimethyl sulfoxide (DMSO) was added to the reaction solution in an amount of less than 5% of the total reaction solution, and then the enzyme inhibitory activity thereof was measured. The enzyme inhibitory activity was represented by percentage of the amount of farnesyl incorporated into the Ras substrate protein in the presence of the test compound to that in the absence of the test compound. IC50 of the test compound was defined as the concentration at which 50% of the enzyme activity was inhibited.

Ras farnesyl transferase [2] = molecular target: T2, Ras farnesyl transferase (Rattus norvegicus, UniProt Q02293+Q04631); assay: In vivo (cellular) inhibitory activity for Ras farnesyl transferase, Rat2 cell line which expresses C-Harvey-Ras protein; assay type: cell-based
T2 construct: endogenous in cells; host or cells: Rat2 fibroblasts transformed with H-Ras or with an H-Ras/K-Ras C-terminus fusion
Experimental: (§1) In the present experiment, Rat2 cell line which expresses C-Harvey-Ras protein having transforming activity and Rat2 cell line (Korean patent application No. 97-14409) which is transformed with fused protein of H-Ras substituted with polybasic lysine domain at C-terminus of K-Ras were used. The experiment was performed by the modified Declue's method (Declue. J. E. et al., Cancer Research, 1991, 51, 712). Hereinafter, the experimental method will be described in more detail.
(§2) 3×10^5 cells of transformed Rat2 fibroblast cell line were sprayed on 60 mm cell cultivation dish and cultivated for 48 hours in a cell incubator at 37° C. and after 50% or more of density was reached, it was treated with the test compounds. The compound according to the present invention dissolved in dimethylsulfoxide (DMSO) was used. 1% concentration of dimethylsulfoxide was used in both control and test groups. After 4 hours from the treatment with the compound, methionine labeled with 150 μCi of radioactive isotope [^35S] per 1 ml of medium was added and after cultivating for 20 hours, the cells were, washed with physiological saline water. The cells were lysed using 1 ml of cold cell lysis buffer solution (50 mM of Sodium HEPES buffer solution containing 5mM of magnesium chloride, 1 mM of DTT, 1% NP 40, 1 mM of EDTA, 1 mM of PMSF, 2 μM of leupeptin, 2 μM of pepstatin A and 2 μM of antipain) and the supernatant wherein the cells were lysed was obtained by high-velocity centrifugation of 12,000 g×5 minutes. The amount of radioisotope in the supernatant was measured and standardized to obtain a quantitative result in immunoprecipitation reaction and then, Y13-259, a monoclonal antibody specifically binding to Ras protein (Furth, M. E. et al., J. Virol, 1982, 43, 294) was added and reacted for 15 hours at 4° C. Protein A(combined with goat anti-murine immunoglobulin antibody)-agarose suspension was added to the solution and reacted for 1 hour at 4° C. and then, to remove the unspecific binding product, immunoprecipitates were washed with a buffer solution (50 mM Tris chloride buffer solution containing 50 mM of sodium chloride, 0.5% of sodium dioxycolate, 0.5% of NP 40 and 0.1% of SDS). The precipitates were added to a buffer solution for electrophoresis and boiled and then, electrophoresis was performed using 13.5% of SDS polyacrylamide gel. After electrophoresis, the gel was fixed and dried. Then, the gel was exposed to X-ray film, developed printed. From the result of the experiment, intensities of band of in combined with or without farnesyl of Ras protein were measured, the concentration of the test compound inhibiting 50% of farnesyl bonding was defined as […], an in vivo Ras farnesyl transferase inhibitory activity.

Ras farnesyl transferase [3] = molecular target: T1, Ras farnesyl transferase; assay: In vitro inhibitory activity for Ras farnesyl transferase, K-Ras substrate; assay type: biochemical
Ras farnesyl transferase [4] = molecular target: T2, Ras farnesyl transferase; assay: In vivo (cellular) inhibitory activity for Ras farnesyl transferase, Rat2 cell line transformed with fused protein of H-Ras substituted with polybasic lysine domain at C-terminus of K-Ras; assay type: cell-based
Experimental: as §1, §2

[5] = recombinant farnesyl transferase 4.5 nM, Ras substrate protein 1.5 μM, tritium-farnesylpyrophosphate 0.15 μM, 30 minutes at 37° C., read-out: H-Ras IC50
[6] = Rat2 cell line expressing C-Harvey-Ras, concentration inhibiting 50% of farnesyl bonding of Ras protein, read-out: H-Ras CIC50
[7] = in vitro farnesyl transferase assay, K-Ras, read-out: K-Ras IC50
[8] = Rat2 cell line transformed with H-Ras fused with polybasic lysine domain of K-Ras C-terminus, concentration inhibiting 50% of farnesyl bonding, read-out: K-Ras CIC50

Row | SMILES | IC50 (Ras farnesyl transferase [1]) | IC50 (Ras farnesyl transferase [2]) | IC50 (Ras farnesyl transferase [3]) | IC50 (Ras farnesyl transferase [4]) | IC50 (Ras farnesyl transferase [1]; [5]) | IC50 (Ras farnesyl transferase [2]; [6]) | IC50 (Ras farnesyl transferase [3]; [7]) | IC50 (Ras farnesyl transferase [4]; [8])
1 | COCCN(C)C(=O)c1cn(Cc2cncn2Cc2ccc(Br)cc2)cc1C(=O)c1cccc2ccccc12 [Compound 141] | 230 nM | 1000 to 10000 nM | 10000 to 100000 nM | 10 to 50 µM |  |  |  | 
2 | CN1CCN(C(=O)c2cn(Cc3cncn3Cc3cccc4ccccc34)cc2-c2cccc3ccccc23)CC1 [Compound 7, 3-(4-Methylpiperazin-1-yl)carbonyl-4-(naphthalen-1-yl)-1-[1-(naphthalen-1-ylmethyl)-1H-imidazol-5-ylmethyl]-1H-pyrrole] |  |  |  |  | 0.6 nM | 25 nM | 2.2 nM | 10 to 50 µM
3 | COCCN(C)C(=O)c1cn(Cc2cncn2CCc2ccccc2F)cc1-c1cccc2ccccc12 [Compound 21, 1-[1-(2-Fluoro)phenethyl-1H-imidazol-5-yl]methyl-3-[N-(2-methoxyethyl)-N-methyl]carbamoyl-4-(naphthalen-1-yl)-1H-pyrrole] |  |  |  |  | 1 nM | 21 nM | 1 nM | 10 to 50 µM
4 | COCCN(C)C(=O)c1cn(Cc2cncn2CCc2cccc(Cl)c2)cc1-c1cccc2ccccc12 [Compound 25, 1-[1-(3-Chloro)phenethyl-1H-imidazol-5-yl]methyl-3-[N-(2-methoxyethyl)-N-methyl]carbamoyl-4-(naphthalen-1-yl)-1H-pyrrole] |  |  |  |  | 2 nM | 15 nM | 5 nM | 10 to 50 µM
5 | CC(C)C[C@H](NC(=O)c1cn(Cc2cncn2Cc2ccc(C#N)cc2)cc1-c1cccc2ccccc12)C(=O)O [Compound 103] |  |  |  |  | 64 nM | 100 to 10000 nM | 1700 nM | 10 to 100 µM
6 | N#Cc1ccc(Cn2cncc2Cn2cc(C(=O)c3cccs3)c(-c3cccc4ccccc34)c2)cc1 [Compound 73, 1-[1-(4-Cyanobenzyl)-1H-imidazol-5-yl]methyl-4-(naphthalen-1-yl)-3-(thiophen-2-yl)carbonyl-1H-pyrrole] |  |  |  |  | 2 nM | 200 nM | 20 nM | > 10 µM
7 | O=C(c1ccccc1Cl)c1cn(Cc2c[nH]cn2)cc1-c1cccc2ccccc12 [Compound 55] |  |  |  |  | 60 nM | 1000 to 50000 nM | 100 to 10000 nM | 10 to 100 µM
8 | COC(=O)c1sc(Cc2cncn2Cc2ccc(Cl)cc2)nc1-c1cccc2ccccc12 [Compound 148] |  |  |  |  | 1700 nM | 30000 nM | > 50000 nM | > 50 µM
9 | O=C(c1cn(Cc2cncn2Cc2ccc3c(c2)OCO3)cc1-c1cccc2ccccc12)N1CCOCC1 [Compound 2, 1-[1-(3,4-Methylenedioxybenzyl)-1H-imidazol-5-ylmethyl]-3-(morpholin-4-yl)carbonyl-4-(naphthalen-1-yl)-1H-pyrrole] |  |  |  |  | 0.85 nM | 25 nM | 2 nM | 10 to 50 µM
10 | N#Cc1ccc(Cn2cncc2Cn2ccc(C(=O)c3cccc4ccccc34)c2)cc1 [Compound 139, 1-[1-(4-Cyanobenzyl)-1H-imidazol-5-yl]methyl-3-(naphthalen-1-yl)carbonyl-1H-pyrrole] | 5 nM | 70 nM | 37000 nM | 7 µM |  |  |  | 
11 | COc1ccc(C(=O)c2cn(Cc3c[nH]cn3)cc2-c2cccc3ccccc23)cc1 [Compound 54] |  |  |  |  | 390 nM | 1000 to 50000 nM | 100 to 10000 nM | 10 to 100 µM
12 | COCCN(C)C(=O)c1cn(Cc2cncn2Cc2ccc(C#N)cc2)nc1-c1cccc2ccccc12 [Compound 156, 1-[1-(4-Cyanobenzyl)-1H-imidazol-5-ylmethyl]-4-[N-(2-methoxyethyl)-N-methyl]-carbamoyl-3-(naphthalen-1-yl)-1H-pyrazole] |  |  |  |  | 20 nM | 100 nM | 200 nM | 40 µM
13 | O=C(c1ccc(Cc2ccccc2)cc1)c1cn(Cc2c[nH]cn2)cc1-c1cccc2ccccc12 [Compound 68] |  |  |  |  | 120 nM | 1000 to 50000 nM | 100 to 10000 nM | 10 to 100 µM
14 | Cc1ccc(C(=O)c2cn(Cc3c[nH]cn3)cc2-c2cccc3ccccc23)cc1 [Compound 52] |  |  |  |  | 70 nM | 1000 to 50000 nM | 100 to 10000 nM | 10 to 100 µM
15 | CN1CCN(C(=O)c2cn(Cc3cncn3Cc3ccc(Cl)cc3)cc2-c2cccc3ccccc23)CC1 [Compound 126, 1-[1-(4-Chlorobenzyl)-1H-imidazol-5-yl]methyl-3-[4-methylpiperazin-1-yl]carbonyl-4-(naphthalen-1-yl)-1H-pyrrole] |  |  |  |  | 1 nM | 12 nM | 4 nM | 5 µM
16 | O=C(c1ccsc1)c1cn(Cc2c[nH]cn2)cc1-c1cccc2ccccc12 [Compound 45] |  |  |  |  | 130 nM | 1000 to 50000 nM | 100 to 10000 nM | 10 to 100 µM
17 | O=C(c1cn(Cc2cncn2Cc2ccc(Br)cc2)cc1-c1cccc2ccccc12)N1CCOCC1 [Compound 112, 1-[1-(4-Bromobenzyl)-1H-imidazol-5-yl]methyl-3-(morpholin-4yl)carbonyl-4-(naphthalen-1-yl)-1H-pyrrole] |  |  |  |  | 4 nM | 15 nM | 6 nM | 
18 | N#Cc1ccc(Cn2cncc2Cn2cc(C(=O)c3ccc(Br)cc3)c(-c3cccc4ccccc34)c2)cc1 [Compound 77] |  |  |  |  | 4 nM | 100 nM | 120 nM | 
19 | COCCN(C)C(=O)c1cn(Cc2cncn2Cc2ccc(Br)cc2)nc1-c1cccc2ccccc12 [Compound 154, 1-[1-(4-Bromobenzyl)-1H-imidazol-5-ylmethyl]-4-[N-(2-methoxyethyl)-N-methyl]-carbamoyl-3-(naphthalen-1-yl)-1H-pyrazole] |  |  |  |  | 30 nM | 150 nM | 200 nM | 
20 | COCCN(C)C(=O)c1cn(Cc2cncn2Cc2ccc(C#N)cc2)cc1-c1cccc2ccccc12 [Compound 110, 1-[1-(4-Cyanobenzyl)-1H-imidazol-5-yl]methyl-3-[N-(2-methoxyethyl)-N-methyl]carbamoyl-4-(naphthalen-1-yl)-1H-pyrrole] |  |  |  |  | 0.6 nM | 8 nM | 1.5 nM | 
21 | Cn1cncc1Cn1cc(C(=O)N2CCOCC2)c(-c2cccc3ccccc23)c1 [Compound 99, 1-(1-Methyl-1H-imidazol-5-yl)methyl-3-(morpholin-4-yl)carbonyl(naphthalen-1-yl)-1H-pyrrole] |  |  |  |  |  | 100 nM |  | > 50 µM
